Data as given in the supplement of paper PMC10307832.

Each cell line was assayed with CO[C@@H]1[C@H](N(C)C(=O)c2ccccc2)C[C@H]2O[C@]1(C)n1c3ccccc3c3c4c(c5c6ccccc6n2c5c31)C(=O)NC4 [Midostaurin] (assay: relative viability (nuclei count vs DMSO), 5 days (fraction); higher = more cells survive). Conditions: 0.01 µM.
Outline: (§1)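 Five library-drug doses, separated by factors of √10, were pinned into 1536-well plates holding lung cancer cell lines after an overnight stay at 37 °C. Cells were fixed, permeabilised and Hoechst-stained in one step after 5 days without medium change, then imaged at 4×. Viability compares treated-well with vehicle-well nuclei, counted in MetaXpress, as a median across plates. Passing plates had control CV below 25% and at least one doubling.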

| Cell Line | relative viability |
| --- | --- |
| SW 1573 | 0.991 |
| NCI-H838 | 1 |
| NCI-H520 | 0.914 |
| NCI-H2126 | 1.02 |
| EMC-BAC-2 | 0.928 |
| NCI-H2085 | 1.06 |
| HCC-366 | 0.913 |
| NCI-H1666 | 1.03 |
| NCI-H596 | 0.946 |
| LK-2 | 0.998 |
| NCI-H2087 | 0.972 |
| SK-MES-1 | 0.998 |
| H3255 | 0.971 |
| COR-L23 | 0.998 |
| COR-L 105 | 0.953 |
| LOU-NH91 | 1.02 |
| NCI-H2170 | 0.973 |
| NCI-H2405 | 1.01 |
| HOP-62 | 0.88 |
| HCC-44 | 1 |
| LU99A | 0.881 |
| BEN | 0.98 |
| HARA | 0.98 |
| HCC-78 | 1.01 |
| NCI-H322M | 1 |
| LCLC-97TM1 | 1.02 |
| NCI-H2009 | 0.972 |
| A-427 | 0.927 |
| NCI-H661 | 0.963 |
| NCI-H1734 | 0.939 |

Same assay, conditions: 0.03162 µM

| Cell Line | relative viability |
| --- | --- |
| SW 1573 | 1.08 |
| NCI-H838 | 0.927 |
| NCI-H520 | 0.96 |
| NCI-H2126 | 0.872 |
| EMC-BAC-2 | 0.903 |
| NCI-H2085 | 0.889 |
| HCC-366 | 1.03 |
| NCI-H1666 | 0.953 |
| NCI-H596 | 1.01 |
| LK-2 | 1.04 |
| NCI-H2087 | 0.938 |
| SK-MES-1 | 0.92 |
| H3255 | 0.948 |
| COR-L23 | 0.946 |
| COR-L 105 | 0.858 |
| LOU-NH91 | 0.89 |
| NCI-H2170 | 0.941 |
| NCI-H2405 | 1.05 |
| HOP-62 | 0.893 |
| HCC-44 | 0.965 |
| LU99A | 1.14 |
| BEN | 0.964 |
| HARA | 0.87 |
| HCC-78 | 0.814 |
| NCI-H322M | 0.852 |
| LCLC-97TM1 | 0.867 |
| NCI-H2009 | 0.904 |
| A-427 | 0.879 |
| NCI-H661 | 0.869 |
| NCI-H1734 | 0.939 |

Same assay, conditions: 0.1 µM

| Cell Line | relative viability |
| --- | --- |
| SW 1573 | 1.05 |
| NCI-H838 | 0.801 |
| NCI-H520 | 1.07 |
| NCI-H2126 | 0.999 |
| EMC-BAC-2 | 0.858 |
| NCI-H2085 | 1.02 |
| HCC-366 | 1.02 |
| NCI-H1666 | 0.992 |
| NCI-H596 | 1.15 |
| LK-2 | 0.947 |
| NCI-H2087 | 0.985 |
| SK-MES-1 | 0.967 |
| H3255 | 0.876 |
| COR-L23 | 0.958 |
| COR-L 105 | 0.828 |
| LOU-NH91 | 0.967 |
| NCI-H2170 | 1.01 |
| NCI-H2405 | 0.883 |
| HOP-62 | 1.06 |
| HCC-44 | 0.996 |
| LU99A | 0.887 |
| BEN | 1.03 |
| HARA | 0.974 |
| HCC-78 | 1.03 |
| NCI-H322M | 1.06 |
| LCLC-97TM1 | 1.06 |
| NCI-H2009 | 0.961 |
| A-427 | 1.03 |
| NCI-H661 | 0.991 |
| NCI-H1734 | 0.998 |

Same assay, conditions: 0.3162 µM

| Cell Line | relative viability |
| --- | --- |
| SW 1573 | 0.969 |
| NCI-H838 | 0.667 |
| NCI-H520 | 0.863 |
| NCI-H2126 | 1.02 |
| EMC-BAC-2 | 0.954 |
| NCI-H2085 | 0.919 |
| HCC-366 | 0.955 |
| NCI-H1666 | 0.888 |
| NCI-H596 | 1.17 |
| LK-2 | 1 |
| NCI-H2087 | 1.26 |
| SK-MES-1 | 0.89 |
| H3255 | 0.966 |
| COR-L23 | 0.875 |
| COR-L 105 | 0.874 |
| LOU-NH91 | 1 |
| NCI-H2170 | 1 |
| NCI-H2405 | 1.07 |
| HOP-62 | 1.1 |
| HCC-44 | 0.985 |
| LU99A | 0.939 |
| BEN | 1.19 |
| HARA | 0.932 |
| HCC-78 | 0.606 |
| NCI-H322M | 1.34 |
| LCLC-97TM1 | 1.17 |
| NCI-H2009 | 0.939 |
| A-427 | 0.985 |
| NCI-H661 | 1.11 |
| NCI-H1734 | 0.871 |

The cell lines below were run with COc1cc(-c2nn([C@H]3CC[C@H](N4CCN(C(C)=O)CC4)CC3)c3ncnc(N)c23)ccc1NC(=O)c1cc2ccccc2n1C in the same assay as above. Conditions: 0.0128 µM.
Outline: as §1

| Cell Line | relative viability |
| --- | --- |
| SW 1573 | 0.926 |
| NCI-H838 | 0.953 |
| NCI-H520 | 0.79 |
| NCI-H2126 | 1.04 |
| EMC-BAC-2 | 1.04 |
| NCI-H2085 | 1.01 |
| HCC-366 | 0.995 |
| NCI-H1666 | 0.98 |
| NCI-H596 | 1.03 |
| LK-2 | 1 |
| NCI-H2087 | 1.09 |
| SK-MES-1 | 1.02 |
| H3255 | 0.996 |
| COR-L23 | 1.06 |
| COR-L 105 | 0.811 |
| LOU-NH91 | 0.985 |
| NCI-H2170 | 1.07 |
| NCI-H2405 | 1.06 |
| HOP-62 | 1.11 |
| HCC-44 | 1.06 |
| LU99A | 1.03 |
| BEN | 0.816 |
| HARA | 1.03 |
| HCC-78 | 1.06 |
| NCI-H322M | 0.995 |
| LCLC-97TM1 | 0.943 |
| NCI-H2009 | 1.01 |
| A-427 | 1.05 |
| NCI-H661 | 1.02 |
